Measurements as given in US7608577B2, “Peptidyl ketones as inhibitors of DPIV” (OSI Pharmaceuticals, Inc., priority 2001, dated 2009).

Assays:
porcine DPIV = porcine DPIV (Sus scrofa, UniProt P22411); assay: Determination of IC50 values against DPIV; format: biochemical; conditions: Gly-Pro-pNA 0.4 mM, APN, 30° C., HEPES pH7.6, read-out: IC50
Experimental: 100 μl inhibitor stock solution was mixed with 100 μl buffer (HEPES pH7.6) and 20 μl diluted porcine DPIV and preincubated at 30° C. Reaction was started by addition of a mixture of 50 μl substrate (Gly-Pro-pNA, final concentration 0.4 mM) and 2 μl APN stock solution. Formation of the product pNA was measured at 405 nm and 30° C. over 10 min using the HTS 7000Plus plate reader (Perkin Elmer) and slopes were calculated. The final inhibitor concentrations ranged between 1 mM and 30 nM. For calculation of IC50 GraFit 4.0.13 (Erithacus Software) was used.

[1] = molecular target: T1, Dipeptidyl peptidase I (DP I, cathepsin C) (Rattus norvegicus, UniProt P80067); assay: Cross reacting enzymes: dipeptidyl peptidase I; format: biochemical; conditions: MES buffer pH5.6, 30° C.
T1 construct: purchased Qiagen GmbH, Hilden, Germany
T1 sequence (P80067 25-462): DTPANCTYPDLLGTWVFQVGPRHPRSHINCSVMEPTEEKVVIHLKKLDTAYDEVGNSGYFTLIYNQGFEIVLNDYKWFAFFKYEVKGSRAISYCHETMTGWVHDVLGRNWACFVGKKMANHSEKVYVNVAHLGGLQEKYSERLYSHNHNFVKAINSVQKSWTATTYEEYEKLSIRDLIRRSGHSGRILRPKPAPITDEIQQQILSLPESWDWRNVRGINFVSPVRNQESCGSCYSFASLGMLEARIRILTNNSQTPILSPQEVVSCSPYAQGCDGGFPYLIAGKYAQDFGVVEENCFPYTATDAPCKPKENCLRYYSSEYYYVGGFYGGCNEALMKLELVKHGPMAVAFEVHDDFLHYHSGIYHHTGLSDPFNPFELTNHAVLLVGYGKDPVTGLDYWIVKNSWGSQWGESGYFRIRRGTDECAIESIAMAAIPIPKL
Experimental: DP I or cathepsin C is a lysosomal cysteine protease which cleaves off dipeptides from the N-terminus of their substrates (Gutman, H. R. & Fruton, J. S., 1948, J. Biol: Chem., 174, 851-858). It is classified as a cysteine protease. The enzyme used was purchased from Qiagen (Qiagen GmbH, Hilden, Germany). In order to get a fully active enzyme, the enzyme was diluted 1000 fold in MES buffer pH5.6 (40 mM MES, 4 mM DTT, 4 mM KCl, 2 mM EDTA, 0.015% Brij) and pre-incubated for 30 min at 30° C.
50 μl solution with the test compounds in a concentration range of 1*10^−5 M-1*10^−7 M was admixed with 110 μl buffer-enzyme-mixture. The assay mixture was pre-incubated at 30° C. for 15 min. After pre-incubation, 100 μl histidylseryl-βnitroaniline (2*10^−5M) was added and measurement of yellow color development due to β-nitroaniline release was performed at 30° C. and […] for 10 min, using a plate reader (HTS7000 plus, Applied Biosystems, Weiterstadt, Germany).
The IC 50-values were calculated using Graphit 4.0.15 (Erithacus Software, Ltd., UK).

plasma DPIV activity = molecular target: T2, plasma DPIV activity (Rattus norvegicus, UniProt P14740); assay: DPIV inhibiting activity after intravasal and oral administration to Wistar rats; format: in vivo; conditions: 100 mg/kg; for In vivo DPIV-inhibition at tmax, i.v.: intra-vasal (intra-arterial); for In vivo DPIV-inhibition at tmax, p.o.: oral
T2 construct: from tissue; host or cells: plasma of Wistar rats
Experimental: Male Wistar rats (Shoe: Wist(Sho)) with a body weight ranging between 250 and 350 g were purchased from Tierzucht Schönwalde (Schönwalde, Germany).
Animals were single-caged under conventional conditions with controlled temperature (22±2° C.) on a 12/12 hours light/dark cycle (light on at 06:00 AM). Standard pelleted chow (ssniff® Soest, Germany) and tap water acidified with HCl were allowed ad libitum.
After ≧one week of adaptation at the housing conditions, catheters were implanted into the carotid artery of Wistar rats under general anaesthesia (i.p. injection of 0.25 ml/kg b.w. ROMPUN® [2%], BayerVital, Germany and 0.5 ml/kg b.w. Ketamin 10, Atarost GmbH & Co., Twistringen, Germany). The animals were allowed to recover for one week. The catheters were flushed with heparin-saline (100 IU/ml) three times per week. In case of catheter dysfunction, a second catheter was inserted into the contralateral carotid artery of the respective rat. After one week of recovery from surgery, this animal was reintegrated into the study. In case of dysfunction of the second catheter, the animal was withdrawn from the study. A new animal was recruited and the experiments were continued in the planned sequence, beginning at least 7 days after catheter implantation.
Rats with intact catheter function were administered placebo (1 ml saline, 0.154 mol/l) or test compound via the oral and the intra-vasal (intra-arterial) route. After overnight fasting, 100 μl samples of heparinised arterial blood were collected at −30, −5, and 0 min. The test substance was dissolved freshly in 1.0 ml saline (0.154 mol/l) and was administered at 0 min either orally via a feeding tube (75 mm; Fine Science Tools, Heidelberg, Germany) or via the intra-vasal route. In the case of oral administration, an additional volume of 1 ml saline was injected into the arterial catheter. In the case of intra-arterial administration, the catheter was immediately flushed with 30 μl saline and an additional 1 ml of saline was given orally via the feeding tube.
After application of placebo or the test substances, arterial blood samples were taken at 2.5, 5, 7.5, 10, 15, 20, 40, 60 and 120 min from the carotid catheter of the conscious unrestrained rats. All blood samples were collected into ice cooled Eppendorf tubes (Eppendorf-Netheler-Hinz, Hamburg, Germany) filled with 10 μl 1M sodium citrate buffer (pH 3.0) for plasma DPIV activity measurement. Eppendorf tubes were centrifuged immediately (12000 rpm for 2 min, Hettich Zentrifuge EBA 12, Tuttlingen; Germany): The plasma fractions were stored on ice until analysis or were frozen at −20° C. until analysis. […]
Statistical evaluations and graphics were performed with PRISM® 3.02 (GraphPad Software, Inc.). All parameters were analysed in a descriptive manner including mean and SD.

T2 sequence (P14740 38-767 limits assumed): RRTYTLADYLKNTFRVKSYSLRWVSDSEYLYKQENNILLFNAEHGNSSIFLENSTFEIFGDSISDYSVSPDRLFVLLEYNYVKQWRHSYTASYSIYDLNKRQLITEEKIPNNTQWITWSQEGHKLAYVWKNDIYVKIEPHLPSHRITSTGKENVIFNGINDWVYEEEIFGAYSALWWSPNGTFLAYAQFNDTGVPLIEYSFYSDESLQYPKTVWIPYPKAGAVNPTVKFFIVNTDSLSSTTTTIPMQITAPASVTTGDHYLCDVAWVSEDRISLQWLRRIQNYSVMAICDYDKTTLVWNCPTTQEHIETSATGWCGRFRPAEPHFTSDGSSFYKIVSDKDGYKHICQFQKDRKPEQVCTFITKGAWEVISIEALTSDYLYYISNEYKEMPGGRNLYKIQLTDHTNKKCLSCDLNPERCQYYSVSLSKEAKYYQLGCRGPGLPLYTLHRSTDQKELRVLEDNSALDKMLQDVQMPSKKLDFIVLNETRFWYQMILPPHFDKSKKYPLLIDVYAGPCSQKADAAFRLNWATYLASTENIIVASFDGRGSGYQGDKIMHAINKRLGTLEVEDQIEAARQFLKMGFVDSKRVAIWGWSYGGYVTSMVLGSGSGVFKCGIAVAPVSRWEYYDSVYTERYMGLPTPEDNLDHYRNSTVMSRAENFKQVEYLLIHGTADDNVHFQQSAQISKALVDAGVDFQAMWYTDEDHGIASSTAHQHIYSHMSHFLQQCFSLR
Sequence of porcine DPIV (P22411 whole entry): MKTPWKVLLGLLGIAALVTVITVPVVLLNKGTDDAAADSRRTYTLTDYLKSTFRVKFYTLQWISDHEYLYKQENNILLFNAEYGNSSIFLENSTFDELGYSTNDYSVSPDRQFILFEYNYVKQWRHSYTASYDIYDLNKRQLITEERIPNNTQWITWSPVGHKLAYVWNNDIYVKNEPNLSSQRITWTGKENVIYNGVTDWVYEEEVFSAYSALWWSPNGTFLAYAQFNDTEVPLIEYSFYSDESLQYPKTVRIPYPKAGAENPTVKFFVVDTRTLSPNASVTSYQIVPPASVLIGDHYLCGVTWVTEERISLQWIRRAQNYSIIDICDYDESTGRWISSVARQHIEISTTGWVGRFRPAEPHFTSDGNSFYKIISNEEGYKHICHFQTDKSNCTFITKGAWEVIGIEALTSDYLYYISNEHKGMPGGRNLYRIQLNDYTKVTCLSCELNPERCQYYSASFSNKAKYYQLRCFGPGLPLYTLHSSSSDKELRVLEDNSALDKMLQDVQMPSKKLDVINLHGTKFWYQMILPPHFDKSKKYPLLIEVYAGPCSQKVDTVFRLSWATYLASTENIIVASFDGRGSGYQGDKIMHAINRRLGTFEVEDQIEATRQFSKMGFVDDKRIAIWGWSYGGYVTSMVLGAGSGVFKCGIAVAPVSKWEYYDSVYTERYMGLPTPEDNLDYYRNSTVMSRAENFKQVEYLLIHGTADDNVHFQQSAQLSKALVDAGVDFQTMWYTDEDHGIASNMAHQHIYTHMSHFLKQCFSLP

| IC50 (porcine DPIV) [µM] | IC50 [1] [µM] | In vivo DPIV-inhibition at tmax, i.v. (plasma DPIV activity) [%] | In vivo DPIV-inhibition at tmax, p.o. (plasma DPIV activity) [%] | DP I IC50 [1] | SMILES |
| --- | --- | --- | --- | --- | --- |
| 0.0102 | 120 | 89 | 87 |  | Br.CC(=O)OCC(=O)[C@@H]1CCCN1C(=O)[C@@H](NC(=O)[C@H](C)N)C(C)C [H-Ala-Val-Pro-CH2O—CO—CH3*HBr, 2-[(Acetyloxy-methyl)carbonyl]-1-N-[(L)-Alanyl-(L)-Valinyl]-(2S)-pyrrolidine hydrobromide] |
|  | 316 | 95 | 68 |  | Br.CC(C)[C@H](NC(=O)[C@H](C)N)C(=O)N1CCC[C@H]1C(=O)COC(=O)c1ccccc1 [H-Ala-Val-Pro-CO—CH2O—CO—Ph*HBr, 2-[(Benzoyloxy-methyl)carbonyl]-1-N-[{(L)-Alanyl}-(L)-Valinyl]-(2S)-pyrrolidine hydrobromide] |
| 0.579 |  |  |  | no inhibition | Br.CC(=O)[C@@H]1CCCN1C(=O)[C@@H](NC(=O)[C@H](C)N)C(C)C [H-Ala-Val-Pro-Me*HBr, 2-Methylcarbonyl-1-N-[(L)-Alanyl-(L)-Valinyl]-(2S)-pyrrolidine hydrobromide] |
